Test results from US20150051242A1, “RAFAMYCIN ANALOGS AND METHODS FOR MAKING SAME” (HANGZHOU ZYLOX PHARMA CO., LTD, priority 2012, published 2015).

molecular target: T1, mTOR (Homo sapiens, UniProt P42345+P62942); assay: mTOR TR-FRET kinase assay (phosphorylation of GFP-4E-BP1); assay type: biochemical; conditions: 10 μM ATP, 0.4 μM GFP-4E-BP1, read-out: IC50 mTOR inhibition
T1 construct: purchased Invitrogen (mTOR); SinoBiological (FKBP12) PV4753 (mTOR); 10268-H08E (FKBP12)
From the text: Now we use a Terbium labeled anti-phosphorylated 4E--BP1 antibody to detect phosphorylation of the GFP-labeled substrate by mTOR. This TR-FRET based assay can be used to screen inhibitors of mTOR in vitro.
Materials: Assay buffer components: 1M HEPES pH7.5, GIBCO, Cat#15630: 1M MgCl2, Sigma, Cat# M1028: 0.5M EDTA, GIBCO, Cat# 15575: DTT, Sigma Cat# 43819: EGTA, Sigma Cat# E3889; Triton X100, Sigma, Cat# T8787: USA CALBIOCHEM Cat# 126575.
Enzyme, substrate and detection reagents: mTOR: Invitrogen, Cat# PV4753: GFP-4E-BPI: Invitrogen, Cat# PV4759: FKBP12: SinoBiological, Cat# 10268-H08E: ATP: Sigma Cat# A26209: Tb-anti-p4E-BP1: Invitrogen, Cat# PV4755: TR-FRET Dilution buffer Invitrogen, Cat# PV3574.
Plate: Compounds preparation plate: 384-well, Corning cat# 3657: Assay plate: black low volume 384 well microtiter plate (Greiner Bio-One, Cat# 784076).
Procedure: Compounds dosage gradient solution preparation:
Compounds were 3-fold serial diluted in 100% DMSO in a microtiter plate (Corning 3674) at 11 different concentrations in the range of 100 μM to 1.7 nM (100 μM, 33 μM, 11 μM, 3.7 μM, 1.2 μM, 411 nM, 137 nM, 46 nM, 15 nM, 5 nM, 1.7 nM). Then the diluted compounds in 100% DMSO was 10-fold diluted with ddH2O, so the compounds were in 10% DMSO.
0.5 μl diluted compounds in 10% DMSO was pipetted into a black low volume 384 well microtiter plate (Greiner Bio-One, Frickenhausen, Germany, cat# 784076): 2 μl of a solution of mTOR in aqueous assay buffer |50 mM HEPES/NaOH pH 7.5. mM MgCl12, 1.0 mM dithiothreitol, 1 mM EGTA, 0.01% (v/v) Triton-X100 (Sigma), 0.01% (w/v| bovine serum albumine (BSA)| (mTOR, 0.3125 ng/μl=>final cone, in the 5 μl assay volume is 0.125 ng/μl) were added to the assay plate and the compound-enzyme mixture was incubated for 15 min at 22° C. to allow pre-binding of the test compounds to the enzyme before the start of the kinase reaction:
The kinase reaction was started by the addition of 2.5 μl of a solution of ATP (ATP, […]=>final conc., in the 5 μl assay volume is 10 μM) and substrate (0.8 μM=>final conc. in the 5 μl assay volume is 0.4 μM) in assay buffer and the resulting mixture was incubated for 18 min at 22° C.
The reaction was stopped by the addition of 5 ul of 30 mM EDTA (EDTA, 30 mM=> final cone, in the 10 ∥l assay volume is 15 mM) and 4 nM Tb-chelate labeled anti-4E-BP1 |pT46| phosphospecific antibody |Invitrogen Cat# PV4755| (Tb-labeled antibody, 4 nM=>final conc. in the 10 μl assay volume is 2 nM) in TR-FRET dilution buffer, the resulting mixture was incubated 1 hour at 22° C. to allow the formation of complex of the phosphorylated substrate and the Tb-chelate labeled antibody.
The amount of phosphorylated substrate was evaluated by measurement of the resonance energy transfer from the Tb-chelate to the GFP. Therefore, the fluorescence emission at 495 nmn and 520 nm after excitation at 340 nm was measured on envision 2104 multilabel reader (Perkin-Elmer). The ratio of the emission at 520 nm and at 495 nm was taken as the measure for the amount of phosphorylated substrate. The data were normalised (enzyme reaction without inhibitor=0% inhibition, all other assay components but no enzyme=100% inhibition) and IC50 values were calculated by a 4 parameter fit (equation (1)) using IDBS XLfit software (ID Business Solutions Ltd., UK)
Y=Bottom+(TOP−Bottom)/(1+10̂((LogIC50−X)*hillslope)) equation (1)
In this equation, Y was the normalized % inhibition value. X was the log value of the test compound concentration. IC50 was the concentration of compound where half of maximal inhibition was achieved.

T1 sequence (P42345 1360-2549 limits assumed): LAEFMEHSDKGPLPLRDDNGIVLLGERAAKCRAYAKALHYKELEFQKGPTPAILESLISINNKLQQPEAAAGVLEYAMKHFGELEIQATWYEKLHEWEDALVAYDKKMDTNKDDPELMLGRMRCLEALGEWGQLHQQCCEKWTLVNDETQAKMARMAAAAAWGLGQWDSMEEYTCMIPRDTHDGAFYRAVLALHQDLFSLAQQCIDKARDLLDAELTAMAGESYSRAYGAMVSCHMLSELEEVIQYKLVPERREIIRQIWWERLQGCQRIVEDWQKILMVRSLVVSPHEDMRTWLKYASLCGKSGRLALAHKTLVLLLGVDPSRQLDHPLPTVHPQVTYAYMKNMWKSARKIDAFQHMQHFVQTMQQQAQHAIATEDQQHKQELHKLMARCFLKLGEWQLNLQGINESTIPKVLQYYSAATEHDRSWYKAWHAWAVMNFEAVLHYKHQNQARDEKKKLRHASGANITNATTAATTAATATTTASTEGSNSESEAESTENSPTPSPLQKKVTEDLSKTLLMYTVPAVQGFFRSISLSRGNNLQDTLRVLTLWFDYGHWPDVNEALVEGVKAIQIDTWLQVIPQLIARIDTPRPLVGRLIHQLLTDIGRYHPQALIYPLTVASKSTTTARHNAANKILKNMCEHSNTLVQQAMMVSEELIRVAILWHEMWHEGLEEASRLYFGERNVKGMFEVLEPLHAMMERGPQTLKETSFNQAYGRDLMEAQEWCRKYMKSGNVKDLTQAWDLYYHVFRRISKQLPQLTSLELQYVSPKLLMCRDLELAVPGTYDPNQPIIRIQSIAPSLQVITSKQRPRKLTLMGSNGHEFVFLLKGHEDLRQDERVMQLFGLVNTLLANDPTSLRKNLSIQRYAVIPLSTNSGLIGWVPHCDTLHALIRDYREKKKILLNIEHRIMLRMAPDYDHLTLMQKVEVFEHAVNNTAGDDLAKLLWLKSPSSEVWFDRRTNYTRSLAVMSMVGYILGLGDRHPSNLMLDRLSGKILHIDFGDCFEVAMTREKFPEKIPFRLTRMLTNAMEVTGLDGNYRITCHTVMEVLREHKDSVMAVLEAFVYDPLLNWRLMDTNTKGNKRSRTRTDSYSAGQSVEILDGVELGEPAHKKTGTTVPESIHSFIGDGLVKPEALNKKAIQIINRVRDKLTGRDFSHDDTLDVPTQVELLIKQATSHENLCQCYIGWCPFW
T1 sequence (P62942 whole entry): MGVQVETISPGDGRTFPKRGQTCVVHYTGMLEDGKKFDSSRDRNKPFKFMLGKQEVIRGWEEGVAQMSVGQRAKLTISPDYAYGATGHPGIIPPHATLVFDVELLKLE

SMILES | IC50 [nM]
CO[C@H]1C[C@@H]2CC[C@@H](C)[C@@](O)(O2)C(=O)C(=O)N2CCCC[C@H]2C(=O)O[C@H]([C@H](C)C[C@@H]2CC[C@H](n3cc(CO)nn3)[C@H](OC)C2)CC(=O)[C@H](C)/C=C(\C)[C@@H](O)[C@@H](OC)C(=O)[C@H](C)C[C@H](C)/C=C/C=C/C=C/1C [Compound B2] | 18.4
CO[C@H]1C[C@@H]2CC[C@@H](C)[C@@](O)(O2)C(=O)C(=O)N2CCCC[C@H]2C(=O)O[C@H]([C@H](C)C[C@@H]2CC[C@H](n3cc(-c4ccc(C(=O)O)cc4)nn3)[C@H](OC)C2)CC(=O)[C@H](C)/C=C(\C)[C@@H](O)[C@@H](OC)C(=O)[C@H](C)C[C@H](C)/C=C/C=C/C=C/1C [Compound B11] | 446
COC1CC2CCC(C)C(O)(O2)C(=O)C(=O)N2CCCCC2C(=O)OC(C(C)CC2CCC(OCc3cn(CCO)nn3)C(OC)C2)CC(=O)C(C)C=C(C)C(O)C(OC)C(=O)C(C)CC(C)C=CC=CC=C1C (centres unmarked) [Compound A9] | > 10000
CO[C@H]1C[C@@H]2CC[C@@H](C)[C@@](O)(O2)C(=O)C(=O)N2CCCC[C@H]2C(=O)O[C@H]([C@H](C)C[C@@H]2CC[C@H](n3cc(-c4ccc(S(N)(=O)=O)cc4)nn3)[C@H](OC)C2)CC(=O)[C@H](C)/C=C(\C)[C@@H](O)[C@@H](OC)C(=O)[C@H](C)C[C@H](C)/C=C/C=C/C=C/1C [Compound B13] | 29
CO[C@H]1C[C@@H]2CC[C@@H](C)[C@@](O)(O2)C(=O)C(=O)N2CCCC[C@H]2C(=O)O[C@H]([C@H](C)C[C@@H]2CC[C@@H](OCc3cn(-c4ccc(C(=O)O)cc4)nn3)[C@H](OC)C2)CC(=O)[C@H](C)/C=C(\C)[C@@H](O)[C@@H](OC)C(=O)[C@H](C)C[C@H](C)/C=C/C=C/C=C/1C [Compound A4] | 6600
CO[C@H]1C[C@@H]2CC[C@@H](C)[C@@](O)(O2)C(=O)C(=O)N2CCCC[C@H]2C(=O)O[C@H]([C@H](C)C[C@@H]2CC[C@@H](OCc3c[nH]nn3)[C@H](OC)C2)CC(=O)[C@H](C)/C=C(\C)[C@@H](O)[C@@H](OC)C(=O)[C@H](C)C[C@H](C)/C=C/C=C/C=C/1C [Compound A6] | 9140
CO[C@H]1C[C@@H]2CC[C@@H](C)[C@@](O)(O2)C(=O)C(=O)N2CCCC[C@H]2C(=O)O[C@H]([C@H](C)C[C@@H]2CC[C@@H](OCCO)[C@H](OC)C2)CC(=O)[C@H](C)/C=C(\C)[C@@H](O)[C@@H](OC)C(=O)[C@H](C)C[C@H](C)/C=C/C=C/C=C/1C [Compound A15, reference compound] | 6.43
COC1CC2CCC(C)C(O)(O2)C(=O)C(=O)N2CCCCC2C(=O)OC(C(C)CC2CCC(OCc3cn(Cc4ccc(F)cc4)nn3)C(OC)C2)CC(=O)C(C)C=C(C)C(O)C(OC)C(=O)C(C)CC(C)C=CC=CC=C1C (centres unmarked) [Compound A14] | > 10000
CO[C@H]1C[C@@H]2CC[C@@H](C)[C@@](O)(O2)C(=O)C(=O)N2CCCC[C@H]2C(=O)O[C@H]([C@H](C)C[C@@H]2CC[C@@H](OCc3cn(CC(=O)O)nn3)[C@H](OC)C2)CC(=O)[C@H](C)/C=C(\C)[C@@H](O)[C@@H](OC)C(=O)[C@H](C)C[C@H](C)/C=C/C=C/C=C/1C [Compound A12] | > 10000
CO[C@H]1C[C@@H]2CC[C@@H](C)[C@@](O)(O2)C(=O)C(=O)N2CCCC[C@H]2C(=O)O[C@H]([C@H](C)C[C@@H]2CC[C@H](n3cc(COc4ccc(S(N)(=O)=O)cc4)nn3)[C@H](OC)C2)CC(=O)[C@H](C)/C=C(\C)[C@@H](O)[C@@H](OC)C(=O)[C@H](C)C[C@H](C)/C=C/C=C/C=C/1C [Compound B12] | 35.2
CO[C@H]1C[C@@H]2CC[C@@H](C)[C@@](O)(O2)C(=O)C(=O)N2CCCC[C@H]2C(=O)O[C@H]([C@H](C)C[C@@H]2CC[C@@H](OCc3cn(C45CC6CC(CC(C6)C4)C5)nn3)[C@H](OC)C2)CC(=O)[C@H](C)/C=C(\C)[C@@H](O)[C@@H](OC)C(=O)[C@H](C)C[C@H](C)/C=C/C=C/C=C/1C [Compound A3] | > 10000
CO[C@H]1C[C@@H]2CC[C@@H](C)[C@@](O)(O2)C(=O)C(=O)N2CCCC[C@H]2C(=O)O[C@H]([C@H](C)C[C@@H]2CC[C@H](n3cc(-c4cccnc4)nn3)[C@H](OC)C2)CC(=O)[C@H](C)/C=C(\C)[C@@H](O)[C@@H](OC)C(=O)[C@H](C)C[C@H](C)/C=C/C=C/C=C/1C [Compound B9] | 27.2
CO[C@H]1C[C@@H]2CC[C@@H](C)[C@@](O)(O2)C(=O)C(=O)N2CCCC[C@H]2C(=O)O[C@H]([C@H](C)C[C@@H]2CC[C@@H](OCc3cn(-c4ccc(N5CCN(C)CC5)cc4)nn3)[C@H](OC)C2)CC(=O)[C@H](C)/C=C(\C)[C@@H](O)[C@@H](OC)C(=O)[C@H](C)C[C@H](C)/C=C/C=C/C=C/1C [Compound A13] | > 10000

test system: HCT-116 human colon cancer; assay: not given; conditions: 9 mg/kg/day p.o., after 22 days treatment, compared to vehicle control

SMILES | tumor growth inhibition [%]
CO[C@H]1C[C@@H]2CC[C@@H](C)[C@@](O)(O2)C(=O)C(=O)N2CCCC[C@H]2C(=O)O[C@H]([C@H](C)C[C@@H]2CC[C@@H](OCCO)[C@H](OC)C2)CC(=O)[C@H](C)/C=C(\C)[C@@H](O)[C@@H](OC)C(=O)[C@H](C)C[C@H](C)/C=C/C=C/C=C/1C [Compound A15, reference compound] | 63
